Target: T1, CCR1 (Homo sapiens, UniProt P32246)
T1 construct: host or cells: THP-1 cells or isolated human CD14+ monocytes
T1 sequence (P32246 1-355): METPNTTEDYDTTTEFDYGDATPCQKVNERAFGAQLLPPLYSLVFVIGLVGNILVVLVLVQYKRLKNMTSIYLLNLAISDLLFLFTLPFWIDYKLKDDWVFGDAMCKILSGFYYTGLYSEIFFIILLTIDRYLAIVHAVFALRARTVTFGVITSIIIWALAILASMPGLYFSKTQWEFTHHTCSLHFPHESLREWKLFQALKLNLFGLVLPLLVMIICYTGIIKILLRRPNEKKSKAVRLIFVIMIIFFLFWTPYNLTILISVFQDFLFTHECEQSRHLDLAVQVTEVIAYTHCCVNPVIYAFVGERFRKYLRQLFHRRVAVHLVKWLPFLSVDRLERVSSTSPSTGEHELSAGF
Assay: Chemotaxis assay (CTX): inhibition of CCR1 mediated migration of THP-1 or monocyte cells
Type: cell-based
Details: class symbols; activity for either the chemotaxis assay or binding assay
Description: THP-1 cells were obtained from ATCC (TIB-202) and cultured as a suspension in RPMI-1640 medium supplemented with 2 mM L-glutamine, 1.5 g/L sodium bicarbonate, 4.5 g/L glucose, 10 mM HEPES, 1 mM sodium pyruvate, 0.05% 2-mercaptoethanol and 10% FBS. Cells were grown under 5% CO2/95% air, 100% humidity at 37° C. and subcultured twice weekly at 1:5 (cells were cultured at a density range of 2×10^5 to 2×10^6 cells/mL) and harvested at 1×10^6 cells/mL. THP-1 cells express CCR1 and can be used in CCR1 binding and functional assays.
Monocytes were isolated from human buffy coats using the Miltenyi bead isolation system (Miltenyi, Auburn, Calif.). Briefly, following a Ficoll gradient separation to isolate peripheral blood mononuclear cells, cells were washed with PBS and the red blood cells lysed using standard procedures. Remaining cells were labeled with anti-CD14 antibodies coupled to magnetic beads (Miltenyi Biotech, Auburn, Calif.). Labeled cells were passed through AutoMACS (Miltenyi, Auburn, Calif.) and positive fraction collected. Monocytes express CCR1 and can be used in CCR1 binding and functional assays.
Chemotaxis assays were performed using 5 μm pore polycarbonate, polyvinylpyrrolidone-coated filters in 96-well chemotaxis chambers (Neuroprobe; Gaithersburg, Md.) using chemotaxis buffer (Hank's balanced salt solution (HBSS) and 1% FBS). CCR1 chemokine ligands (i.e., MIP-1α, CCL15/Leukotactin; R&D Systems; Minneapolis, Minn.) are use to evaluate compound mediated inhibition of CCR1 mediated migration. Other chemokines (i.e., SDF-1α; R&D Systems; Minneapolis, Minn.) are used as specificity controls. The lower chamber was loaded with 29 μl of chemokine (i.e., 0.1 nM CCL15/Leukotactin) and varying amounts of compound; the top chamber contained 100,000 THP-1 or monocyte cells in 20 μl. The chambers were incubated 1-2 hours at 37° C., and the number of cells in the lower chamber quantified either by direct cell counts in five high powered fields per well or by the CyQuant assay (Molecular Probes), a fluorescent dye method that measures nucleic acid content, and by measuring with a Spectrafluor Plus (Tecan). The computer program Prism from GraphPad, Inc. (San Diego, Calif.) was used to calculate IC50 values. IC50 values are those compound concentrations required to inhibit the number of cells responding to a CCR1 agonist by 50%.

| SMILES | IC50 [nM] |
| --- | --- |
| O=C(Cn1cnc2ncccc21)N1CCCc2c1cnn2-c1ccc(F)cc1 | 2500 to 12500 |
| Cc1cc(C(F)(F)F)nn1C(CC(=O)O)C(=O)N1CCCc2c1cnn2-c1ccc(F)cc1 (stereo not drawn) | 2500 to 12500 |
| O=C(Cn1cccn1)N1CCCc2c1cnn2-c1ccc(F)cc1 | > 12500 |
| Cc1c(Cl)cccc1CC(=O)N1CCCc2c1cnn2-c1ccc(F)cc1 | > 12500 |
| N#Cc1cnn(CC(=O)N2CCCc3c2cnn3-c2ccc(F)cc2)c1 | 2500 to 12500 |
| CC(C)(O)c1cnn(CC(=O)N2CCCc3c2cnn3-c2ccc(F)cc2)c1 | 2500 to 12500 |
| Cc1c(Cl)cnn1CC(=O)N1CCCc2c1cnn2-c1ccc(F)cc1 | < 1000 |
| O=C(Cn1ccc(C(F)(F)F)n1)N1CCCc2c1cnn2-c1ccc(F)cc1 | < 1000 |
| O=C(Cn1cc(Cl)c(C(F)(F)F)n1)N1CCCc2c1cnn2-c1ccc(F)cc1 | < 1000 |
| CCC(C(=O)N1CCCc2c1cnn2-c1ccc(F)cc1)n1nc(C(F)(F)F)c(Cl)c1C (stereo not drawn) | < 1000 |
| Cc1c(Cl)c(C(F)(F)F)nn1C(C(=O)N1CCCc2c1cnn2-c1ccc(F)cc1)C(C)C (stereo not drawn) | < 1000 |
| Cc1ccnn1CC(=O)N1CCCc2c1cnn2-c1ccc(F)cc1 | < 1000 |
| O=C(Cn1cc(Cl)cn1)N1CCCc2c1cnn2-c1ccc(F)cc1 | < 1000 |
| Cc1c(Cl)c(C(F)(F)F)nn1CC(=O)N1CCCc2c1cnn2-c1ccc(F)cn1 | < 1000 |
| CC(C)(C(=O)N1CCCc2c1cnn2-c1ccc(F)cc1)c1ccc(Cl)c(C(F)(F)F)c1 | < 1000 |
| O=C(Cc1ccc(Cl)c(OC(F)(F)F)c1)N1CCCc2c1cnn2-c1ccc(F)cc1 | < 1000 |
| O=C(Cc1ccc(OC(F)(F)F)cc1)N1CCCc2c1cnn2-c1ccc(F)cc1 | < 1000 |
| O=C(Cc1cccc(OC(F)(F)F)c1)N1CCCc2c1cnn2-c1ccc(F)cc1 | 1000 to 2500 |
| O=C(C(O)c1cccc(C(F)(F)F)c1)N1CCCc2c1cnn2-c1ccc(F)cc1 (stereo not drawn) | 1000 to 2500 |
| Cc1nc(C(F)(F)F)nn1CC(=O)N1CCCc2c1cnn2-c1ccc(F)cc1 | < 1000 |
| O=C(Cn1cnc(C(F)(F)F)n1)N1CCCc2c1cnn2-c1ccc(F)cc1 | < 1000 |
| O=C(Cc1nccc(C(F)(F)F)n1)N1CCCc2c1cnn2-c1ccc(F)cc1 | 2500 to 12500 |

| SMILES | IC50 [nM] |
| --- | --- |
| O=C(Cc1ccc(C(F)(F)F)c(Cl)c1)N1CCCc2c1cnn2-c1ccc(F)cc1 | < 1000 |
| Cc1nc(C(F)(F)F)cn1CC(=O)N1CCCc2c1cnn2-c1ccc(F)cc1 | < 1000 |
| O=C(Cn1cnc(C(F)(F)F)c1)N1CCCc2c1cnn2-c1ccc(F)cc1 | < 1000 |
| O=C(Cc1ccc(Cl)c(C(F)(F)F)c1)N1CCCc2c1cnn2-c1ccc(F)cc1 | < 1000 |
| Cc1c(Cl)c(C(F)(F)F)cn1CC(=O)N1c2cnn(-c3ccc(F)cc3)c2CCC1C (stereo not drawn) | < 1000 |
| O=C(Cc1ccc(C(F)(F)F)cc1)N1CCCc2c1cnn2-c1ccc(F)cc1 | < 1000 |
| Cc1nn(-c2ccc(F)cc2)c2c1N(C(=O)Cn1nc(C(F)(F)F)c(Cl)c1C)CCC2 | < 1000 |
| O=C(Cc1cccc(C(F)(F)F)c1)N1CCCc2c1cnn2-c1ccc(F)cc1 | < 1000 |
| Cc1c(Cl)c(C(F)(F)F)nn1C(C)C(=O)N1CCCc2c1cnn2-c1ccc(F)cc1 (stereo not drawn) | < 1000 |
| Cc1cc(C(F)(F)F)nn1CC(=O)N1CCCc2c1cnn2-c1ccc(F)cc1 | < 1000 |
| Cc1nn(CC(=O)N2CCCc3c2cnn3-c2ccc(F)cc2)c(-c2ncccn2)c1Cl | < 1000 |
| Cc1c(Cl)c(-c2ncccn2)nn1CC(=O)N1CCCc2c1cnn2-c1ccc(F)cc1 | < 1000 |
| Cc1c(Cl)c(C(C)(C)O)nn1CC(=O)N1CCCc2c1cnn2-c1ccc(F)cc1 | < 1000 |
| Cc1c(Cl)c(C(F)(F)F)nn1CC(=O)N1CCCc2c1cnn2-c1ccc(Cl)cc1 | < 1000 |
| COc1cc(-n2ncc3c2CCCN3C(=O)Cn2nc(C(F)(F)F)c(Cl)c2C)ccc1Cl | < 1000 |
| O=C(Cc1ccc(Cl)cc1)N1CCCc2c1cnn2-c1ccc(F)cc1 | < 1000 |
| Cc1c(Cl)c(C(F)(F)F)nn1CC(=O)N1CCCc2c1cnn2-c1ccc(F)cc1 | < 1000 |
| Nc1ncnc2c1c(-c1ncc[nH]1)nn2CC(=O)N1CCCc2c1cnn2-c1ccc(F)cc1 | < 1000 |
| Cc1nc(C(F)(F)F)nn1C(C)C(=O)N1CCCc2c1cnn2-c1ccc(F)cc1 (stereo not drawn) | < 1000 |
| Cc1nc(C(F)(F)F)nn1C(C)C(=O)N1CCCc2c1cnn2-c1ccc(Cl)cc1 (stereo not drawn) | < 1000 |
| Cc1nc(C(F)(F)F)cn1[C@@H](C)C(=O)N1CCCc2c1cnn2-c1ccc(Cl)cc1 | < 1000 |
| Cc1nc(C(F)(F)F)cn1[C@@H](C)C(=O)N1CCCc2c1cnn2-c1ccc(F)cc1 | < 1000 |

The remaining lines, values ahead:

| IC50 [nM] | SMILES |
| --- | --- |
| < 1000 | Cc1cc(C(F)(F)F)nn1C(CC1CCOCC1)C(=O)N1CCCc2c1cnn2-c1ccc(F)cc1 (stereo not drawn) |
| < 1000 | Cc1cc(C(F)(F)F)nn1C(CC(N)=O)C(=O)N1CCCc2c1cnn2-c1ccc(F)cc1 (stereo not drawn) |
| < 1000 | CCC(C(=O)N1CCCc2c1cnn2-c1ccc(F)cc1)n1nc(C(C)(C)O)cc1C (stereo not drawn) |
| < 1000 | COCC1CCc2c(cnn2-c2ccc(F)cc2)N1C(=O)Cn1nc(C(F)(F)F)c(Cl)c1C (stereo not drawn) |
| < 1000 | CCC(C(=O)N1CCCc2c1cnn2-c1ccc(F)cc1)n1cc(C(F)(F)F)nc1C (stereo not drawn) |
| < 1000 | Cc1nc(C(F)(F)F)cn1C(C)C(=O)N1CCCc2c1cnn2-c1ccc(F)cc1 (stereo not drawn) |
| < 1000 | Cc1cc(C(F)(F)F)nn1C(CO)C(=O)N1CCCc2c1cnn2-c1ccc(F)cc1 (stereo not drawn) |
| < 1000 | CCC(C(=O)N1c2cnn(-c3ccc(F)cc3)c2CCC1C)n1nc(C(F)(F)F)cc1C (stereo not drawn) |
| < 1000 | O=C(Cc1nc(C(F)(F)F)c2ccccn12)N1CCCc2c1cnn2-c1ccc(F)cc1 |
| < 1000 | CC[C@@H](C(=O)N1CCCc2c1cnn2-c1ccc(F)cc1)n1nc(C(F)(F)F)c(Cl)c1C |
| < 1000 | CC[C@H](C(=O)N1CCCc2c1cnn2-c1ccc(F)cc1)n1nc(C(F)(F)F)c(Cl)c1C |
| < 1000 | O=C(Cc1nc2ccccc2[nH]1)N1CCCc2c1cnn2-c1ccc(F)cc1 |
| < 1000 | COCC(C(=O)N1CCCc2c1cnn2-c1ccc(F)cc1)n1nc(C(F)(F)F)c(Cl)c1C (stereo not drawn) |
| < 1000 | COC(=O)C1CCc2c(cnn2-c2ccc(F)cc2)N1C(=O)Cn1nc(C(F)(F)F)c(Cl)c1C (stereo not drawn) |
| < 1000 | CCC(C(=O)N1CCCc2c1cnn2-c1ccc(F)cc1)n1nc(-c2ncccn2)c(Cl)c1C (stereo not drawn) |
| < 1000 | O=C(Cn1ncc2c1CCCC2)N1CCCc2c1cnn2-c1ccc(F)cc1 |
| < 1000 | O=C(Cc1ccc(C(F)(F)F)cc1Cl)N1CCCc2c1cnn2-c1ccc(F)cc1 |

| IC50 [nM] | SMILES |
| --- | --- |
| < 1000 | Cc1c(Cl)c(C(F)(F)F)nn1CC(=O)N1CCCc2c1cnn2-c1ccc(F)cc1F |
| < 1000 | O=C(Cn1nc(C(F)(F)F)c2c1OCCC2)N1CCCc2c1cnn2-c1ccc(F)cc1 |
| < 1000 | Cc1cc(C(F)(F)F)nn1C(C)C(=O)N1CCCc2c1cnn2-c1ccc(F)cc1 (stereo not drawn) |
| < 1000 | O=C(Cn1ncc2cccnc21)N1CCCc2c1cnn2-c1ccc(F)cc1 |
| < 1000 | O=C(Cn1nc(C(F)(F)F)c2cccnc21)N1CCCc2c1cnn2-c1ccc(F)cc1 |
| < 1000 | O=C(Cc1nc2ccccc2o1)N1CCCc2c1cnn2-c1ccc(F)cc1 |
| < 1000 | O=C(Cn1nc(C(F)(F)F)c2c1CCC2)N1CCCc2c1cnn2-c1ccc(F)cc1 |
| < 1000 | O=C(Cn1nc(C(F)(F)F)c2c1CCCC2)N1CCCc2c1cnn2-c1ccc(F)cc1 |
| < 1000 | Cc1c(Cl)c(-c2ncc[nH]2)nn1CC(=O)N1CCCc2c1cnn2-c1ccc(F)cc1 |
| < 1000 | O=C(Cn1nc(-c2ncc[nH]2)c2cccnc21)N1CCCc2c1cnn2-c1ccc(F)cc1 |
| < 1000 | Cc1c(Cl)c(C2=NCCN2)nn1CC(=O)N1CCCc2c1cnn2-c1ccc(F)cc1 |
| < 1000 | Cc1c(-c2ncon2)cnn1CC(=O)N1CCCc2c1cnn2-c1ccc(F)cc1 |
| < 1000 | Cc1c(Cl)c(C#N)nn1CC(=O)N1CCCc2c1cnn2-c1ccc(F)cc1 |
| < 1000 | O=C(Cn1nc(C(F)(F)F)c2c1CCOC2)N1CCCc2c1cnn2-c1ccc(F)cc1 |
| < 1000 | Cc1c(Cl)c(S(C)(=O)=O)nn1CC(=O)N1CCCc2c1cnn2-c1ccc(F)cc1 |
| < 1000 | O=C(Cn1cc(C(F)(F)F)cn1)N1CCCc2c1cnn2-c1ccc(F)cc1 |
| < 1000 | CC(C(=O)N1CCCc2c1cnn2-c1ccc(F)cc1)c1ccc(Cl)c(C(F)(F)F)c1 (stereo not drawn) |

— US9181241B2, “Antagonists of chemokine receptors” (ChemoCentryx, Inc., priority 2012, dated 2015)
